The source of these data is patent publication US20130267494A1, “1,4-OXAZEPANE DERIVATIVES” (priority 2010, published 2013).

What all share (type): cell-based
The target in assay [1] is T1, human dopamine transporter (Homo sapiens, UniProt Q01959).
T1 construct: expressed in transfected cells
In words: Inhibitory action on human dopamine transporter ([3H]-dopamine uptake in CHO cells). As to conditions: CHO, compound 1 μM; relative to inhibitory activity of 100 μM Nomifensine as 100%; read-out: inhibitory rate (%). In a few lines:
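CHO-K1 cells stably expressing human dopamine transporter, exposed to compound at 10 μM or 1 μM in HEPES-buffered saline with 0.5% BSA. [3H]-dopamine uptake measured over 60 min by scintillation counting. Activity expressed relative to 100 μM nomifensine as 100%.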

Assay [2] deals with T2, human norepinephrine transporter (Homo sapiens, UniProt P23975).
T2 construct: expressed in transfected cells
T2 sequence (P23975 whole entry): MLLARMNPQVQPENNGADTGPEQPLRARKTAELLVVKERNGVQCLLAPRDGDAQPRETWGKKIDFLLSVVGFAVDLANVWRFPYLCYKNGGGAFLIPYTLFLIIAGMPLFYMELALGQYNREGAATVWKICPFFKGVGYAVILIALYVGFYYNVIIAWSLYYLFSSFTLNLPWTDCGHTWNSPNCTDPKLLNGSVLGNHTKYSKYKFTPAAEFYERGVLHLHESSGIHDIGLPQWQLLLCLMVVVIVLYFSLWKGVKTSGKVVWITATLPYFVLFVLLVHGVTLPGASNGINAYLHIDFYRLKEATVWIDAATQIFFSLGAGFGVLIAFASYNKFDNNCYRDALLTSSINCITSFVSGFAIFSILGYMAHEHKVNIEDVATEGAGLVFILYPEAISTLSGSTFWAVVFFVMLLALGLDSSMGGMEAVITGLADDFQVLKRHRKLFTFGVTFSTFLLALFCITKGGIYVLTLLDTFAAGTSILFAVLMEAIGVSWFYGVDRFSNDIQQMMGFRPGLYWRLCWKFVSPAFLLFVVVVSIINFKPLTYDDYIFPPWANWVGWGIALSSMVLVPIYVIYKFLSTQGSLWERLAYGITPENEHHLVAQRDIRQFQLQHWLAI
In words: Inhibitory action on human norepinephrine transporter ([3H]-norepinephrine uptake in CHO cells). As to conditions: CHO, compound 1 μM; relative to inhibitory activity of 10 μM DMI as 100%; read-out: inhibitory rate (%). The method in brief:
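Stably transfected CHO-K1 cells plated overnight, then given test compound and [3H]-norepinephrine (20 nM final, from 200 nM) in HEPES-buffered saline with 0.5% BSA for 45 min. After PBS washes, retained radioactivity counted by scintillation. Inhibition at 10 μM or 1 μM compound expressed relative to 10 μM DMI as 100%.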

In assay [3] the target is T3, human serotonin transporter (Homo sapiens, UniProt P31645).
T3 construct: expressed in transfected cells
T3 sequence (P31645 whole entry): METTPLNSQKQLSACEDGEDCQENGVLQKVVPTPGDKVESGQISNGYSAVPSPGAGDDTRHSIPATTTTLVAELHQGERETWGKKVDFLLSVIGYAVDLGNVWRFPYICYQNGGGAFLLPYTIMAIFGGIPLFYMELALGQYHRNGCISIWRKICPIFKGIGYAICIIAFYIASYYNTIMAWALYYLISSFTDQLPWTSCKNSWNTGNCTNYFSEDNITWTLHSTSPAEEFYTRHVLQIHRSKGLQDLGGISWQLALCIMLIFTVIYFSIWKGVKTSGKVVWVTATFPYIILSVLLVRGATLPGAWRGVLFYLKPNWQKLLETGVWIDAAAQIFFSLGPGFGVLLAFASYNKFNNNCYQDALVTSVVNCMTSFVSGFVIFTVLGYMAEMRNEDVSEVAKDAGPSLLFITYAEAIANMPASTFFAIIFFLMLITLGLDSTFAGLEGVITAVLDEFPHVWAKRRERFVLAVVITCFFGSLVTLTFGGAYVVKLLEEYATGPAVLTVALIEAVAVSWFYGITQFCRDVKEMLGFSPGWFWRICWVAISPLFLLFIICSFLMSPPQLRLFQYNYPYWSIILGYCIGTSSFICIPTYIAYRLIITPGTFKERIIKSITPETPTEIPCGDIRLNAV
In words: Inhibitory action on human serotonin transporter ([3H]-5-hydroxytryptamine uptake in CHO cells). As to conditions: CHO, compound 1 μM; relative to inhibitory activity of 10 μM Paroxetine as 100%; read-out: inhibitory rate (%). The method in brief: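 CHO-K1 cells stably expressing human SERT, plated overnight, took up [3H]-5-HT (diluted to 200 nM before a 1:10 addition) for 20 min in HEPES-buffered saline with glucose and 0.5% BSA; radioactivity counted by scintillation. Compounds at 10 μM or 1 μM, activity expressed relative to 10 μM paroxetine set as 100%.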

Counter-ions that a name gives are not always drawn.

T1 sequence (Q01959 whole entry): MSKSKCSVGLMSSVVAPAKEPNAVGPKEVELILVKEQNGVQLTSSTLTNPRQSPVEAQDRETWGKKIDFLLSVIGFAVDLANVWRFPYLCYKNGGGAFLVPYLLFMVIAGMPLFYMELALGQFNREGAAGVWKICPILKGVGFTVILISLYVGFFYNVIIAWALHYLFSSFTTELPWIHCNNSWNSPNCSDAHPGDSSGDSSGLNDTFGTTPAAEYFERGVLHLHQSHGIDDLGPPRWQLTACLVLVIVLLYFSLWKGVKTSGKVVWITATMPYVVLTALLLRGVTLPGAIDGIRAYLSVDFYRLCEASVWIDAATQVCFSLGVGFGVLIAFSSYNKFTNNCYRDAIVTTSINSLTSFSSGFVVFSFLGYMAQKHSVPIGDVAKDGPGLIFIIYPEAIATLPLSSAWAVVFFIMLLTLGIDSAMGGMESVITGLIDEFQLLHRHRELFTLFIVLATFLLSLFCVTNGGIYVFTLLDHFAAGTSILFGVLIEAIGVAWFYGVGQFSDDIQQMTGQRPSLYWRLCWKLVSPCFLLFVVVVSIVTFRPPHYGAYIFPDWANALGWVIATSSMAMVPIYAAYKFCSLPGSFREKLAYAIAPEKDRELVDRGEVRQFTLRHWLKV

Consider `O=c1[nH]nc(-c2cccnc2O[C@@H]2CNCCO[C@H]2c2ccc(Cl)c(F)c2)[nH]1` [Example 558, 5-(2-{[(6R,7S)-7-(4-chloro-3-fluorophenyl)-1,4-oxazepan-6-yl]oxy}pyridin-3-yl)-2,4-dihydro-3H-1,2,4-triazol-3-one monohydrochloride], for which the values for the inhibition at 1 µM in assay [1], in assay [2] and in assay [3] were 100%, 106% and 81%, respectively.
For `Cc1nnc(-c2cccnc2O[C@@H]2CNCCO[C@H]2c2ccc(Cl)c(F)c2)[nH]1` [Example 568, (6R,7S)-7-(4-chloro-3-fluorophenyl)-6-{[3-(5-methyl-4H-1,2,4-triazol-3-yl)pyridin-2-yl]oxy}-1,4-oxazepane monohydrochloride], the figures for the inhibition at 1 µM in assay [1], in assay [2] and in assay [3] were 100%, 103% and 94%, respectively.
In the case of `CS(=O)(=O)CC1(O)CNCCOC1c1ccc(Cl)c(F)c1` (stereo not drawn) [Example 572, 7-(4-chloro-3-fluoro-phenyl)-6-[(methyl-sulfonyl)-methyl]-1,4-oxazepan-ol], the inhibition at 1 µM worked out at 62% in assay [1], 103% in assay [2] and 95% in assay [3].
For the molecule `OC[C@H](O)[C@H]1OCCNC[C@H]1c1ccc(Cl)c(Cl)c1` [Example 578, (1S)-1-[(6R, 7S)-6-(3,4-dichloro-phenyl)-1,4-oxazepan-7-yl]ethane-1,2-diol], the inhibition at 1 µM in assay [1] was 68%; in assay [2], 99%; in assay [3] it was 28%.
In the case of `OC[C@@H](O)[C@H]1OCCNC[C@H]1c1ccc(Cl)c(Cl)c1` [Example 579, (1R)-1-[(6R, 7S)-6-(3,4-dichloro-phenyl)-1,4-oxazepan-7-yl]ethane-1,2-diol], the inhibition at 1 µM in assay [1] came to 49%; in assay [2] it was 96%; in assay [3] it was 61%.
Consider `O=C(O)c1ccnn(C[C@@H]2CNCCO[C@H]2c2ccc(Cl)c(F)c2)c1=O` [Example 597, 2-{[(6S, 7R)-7-(4-chloro-3-fluoro-phenyl)-1,4-oxazepan-6-yl]methyl}-3-oxo-2,3-dihydro-pyridazine-4-carboxylic acid], for which the inhibition at 1 µM in assay [1] came out at 38%; in assay [2] it was 104%; in assay [3], 78%.
